{
  "source": "patent US9481709B2",
  "about": "“Boropeptide inhibitors of enteropeptidase and their uses in treatment of obesity, overweight and/or diseases associated with an abnormal fat metabolism” (OBE THERAPY BIOTECHNOLOGY, priority 2007, dated 2016)",
  "key": {"[1]": {"molecular_target": "Plasmin (Homo sapiens, UniProt P00747)", "sequence (P00747 97-810)": "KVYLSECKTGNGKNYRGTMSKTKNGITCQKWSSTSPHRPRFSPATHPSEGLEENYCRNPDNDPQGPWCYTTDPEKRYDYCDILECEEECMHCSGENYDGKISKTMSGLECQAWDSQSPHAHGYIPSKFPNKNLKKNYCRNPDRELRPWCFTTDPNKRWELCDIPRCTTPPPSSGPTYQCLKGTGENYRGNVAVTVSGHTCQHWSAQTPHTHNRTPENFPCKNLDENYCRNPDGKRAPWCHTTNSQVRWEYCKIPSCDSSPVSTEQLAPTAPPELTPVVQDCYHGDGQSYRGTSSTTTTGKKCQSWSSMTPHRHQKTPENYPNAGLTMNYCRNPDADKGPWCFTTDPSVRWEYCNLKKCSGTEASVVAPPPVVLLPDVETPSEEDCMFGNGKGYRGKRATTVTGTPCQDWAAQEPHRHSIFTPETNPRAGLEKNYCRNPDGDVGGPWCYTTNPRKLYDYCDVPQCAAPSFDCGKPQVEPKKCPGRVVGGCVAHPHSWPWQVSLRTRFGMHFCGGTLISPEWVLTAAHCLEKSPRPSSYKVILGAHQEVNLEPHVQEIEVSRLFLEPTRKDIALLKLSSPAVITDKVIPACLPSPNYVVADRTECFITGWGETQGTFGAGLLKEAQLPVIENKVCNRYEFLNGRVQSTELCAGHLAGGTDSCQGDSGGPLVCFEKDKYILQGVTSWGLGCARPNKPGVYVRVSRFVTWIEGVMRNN", "experiment": "Plasmin", "text": "(§1) Table printed on a drawing sheet, Fig. 5\nHead of the field: Plasmin\n(§2) The patent's description of the figure: FIG. 5 is a Table showing the IC 50 (in nM) of enteropeptidase, various serine proteases and other enzyme families, in the presence of compounds OBE 1999, OBE 2000, OBE 2001 or OBE 2002.\n(§3) First copying reader's note: Each column is one compound; each row gives its IC50 against the named enzyme.\nWhere the first naming reader finds the target: head: Plasmin"}, "[2]": {"experiment": "Effect on triglyceride absorption after oral gavage with clinoleic 20% + cholesterol", "assay_type": "in vivo, mice", "settings": "for triglycerides, area under the curve: 0-360 min", "protocol": "2. Effect of OBE2001 on Triglyceride Absorption The scope of this second in vivo experiment was to analyse the effects of the OBE2001 compound on triglycerides absorption. To that purpose, mice were injected with OBE2001, before and/or after gavage with a solution enriched with cholesterol and free fatty acids (clinoleic at 20%). In this study, 7 week old Swiss CD1 male mice were weighed and randomized for body weight; 3 groups of 5 mice were then constituted of: • Group 1 (solvant): control group. Vehicle (H2O+2% DMSO) at t-5 min+solution A (clinoleic 20%+cholesterol) at t0. • Group 2 (OBE 25+25): OBE2001 25 mg/kg (before and after gavage). OBE2001 25 mg/kg (solution B) at t-5 min+OBE2001 25 mg/kg in solution A (solution C) at t0. • Group 3 (OBE 25): OBE2001 25 mg/kg […]. Vehicle (H2O+2% DMSO) at t-5 min+OBE2001 25 mg/kg in solution A (solution C) at t0. 30 minutes before treatment (with solution A, B or C) blood was collected by retro orbital puncture after a slight anaesthesia (Isoflurane), to determine basal (t0) triglycerides levels. All solutions were then administered by oral gavage at t-5 (vehicle or solution B) or t0 (solution A or C). After administration of the solution A or C (containing fatty acids+cholesterol), blood was collected again by retro orbital puncture after a slight anaesthesia (Isoflurane) at time 60, 120, 180, 300 and 360 minutes for measurement of triglycerides levels. At time 360 minutes, mice were sacrificed."}, "[3]": {"molecular_target": "Kallikrein (Homo sapiens, UniProt P03952)", "sequence (P03952 20-638)": "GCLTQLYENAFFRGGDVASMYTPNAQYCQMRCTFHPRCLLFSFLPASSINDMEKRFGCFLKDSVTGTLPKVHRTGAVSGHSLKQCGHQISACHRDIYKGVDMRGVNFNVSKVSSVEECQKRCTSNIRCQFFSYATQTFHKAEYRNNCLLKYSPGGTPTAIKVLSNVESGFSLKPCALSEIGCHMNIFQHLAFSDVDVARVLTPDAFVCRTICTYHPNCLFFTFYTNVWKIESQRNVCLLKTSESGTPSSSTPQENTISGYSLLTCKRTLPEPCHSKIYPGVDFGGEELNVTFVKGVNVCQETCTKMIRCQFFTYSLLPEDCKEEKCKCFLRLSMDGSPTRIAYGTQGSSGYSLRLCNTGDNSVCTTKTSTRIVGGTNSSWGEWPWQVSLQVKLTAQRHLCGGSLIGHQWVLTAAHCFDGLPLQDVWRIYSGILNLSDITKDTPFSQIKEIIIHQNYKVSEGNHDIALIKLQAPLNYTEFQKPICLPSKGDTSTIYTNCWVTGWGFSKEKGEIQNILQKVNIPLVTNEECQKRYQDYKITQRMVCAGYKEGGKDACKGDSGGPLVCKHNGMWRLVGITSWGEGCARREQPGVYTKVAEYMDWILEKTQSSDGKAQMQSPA", "experiment": "Kallikrein", "text": "as §1\nHead of the field: Kallikrein\nas §2, §3\nWhere the first naming reader finds the target: head: Kallikrein"}, "[4]": {"molecular_target": "Enteropeptidase (Homo sapiens, UniProt P98073)", "sequence (P98073 2-1019)": "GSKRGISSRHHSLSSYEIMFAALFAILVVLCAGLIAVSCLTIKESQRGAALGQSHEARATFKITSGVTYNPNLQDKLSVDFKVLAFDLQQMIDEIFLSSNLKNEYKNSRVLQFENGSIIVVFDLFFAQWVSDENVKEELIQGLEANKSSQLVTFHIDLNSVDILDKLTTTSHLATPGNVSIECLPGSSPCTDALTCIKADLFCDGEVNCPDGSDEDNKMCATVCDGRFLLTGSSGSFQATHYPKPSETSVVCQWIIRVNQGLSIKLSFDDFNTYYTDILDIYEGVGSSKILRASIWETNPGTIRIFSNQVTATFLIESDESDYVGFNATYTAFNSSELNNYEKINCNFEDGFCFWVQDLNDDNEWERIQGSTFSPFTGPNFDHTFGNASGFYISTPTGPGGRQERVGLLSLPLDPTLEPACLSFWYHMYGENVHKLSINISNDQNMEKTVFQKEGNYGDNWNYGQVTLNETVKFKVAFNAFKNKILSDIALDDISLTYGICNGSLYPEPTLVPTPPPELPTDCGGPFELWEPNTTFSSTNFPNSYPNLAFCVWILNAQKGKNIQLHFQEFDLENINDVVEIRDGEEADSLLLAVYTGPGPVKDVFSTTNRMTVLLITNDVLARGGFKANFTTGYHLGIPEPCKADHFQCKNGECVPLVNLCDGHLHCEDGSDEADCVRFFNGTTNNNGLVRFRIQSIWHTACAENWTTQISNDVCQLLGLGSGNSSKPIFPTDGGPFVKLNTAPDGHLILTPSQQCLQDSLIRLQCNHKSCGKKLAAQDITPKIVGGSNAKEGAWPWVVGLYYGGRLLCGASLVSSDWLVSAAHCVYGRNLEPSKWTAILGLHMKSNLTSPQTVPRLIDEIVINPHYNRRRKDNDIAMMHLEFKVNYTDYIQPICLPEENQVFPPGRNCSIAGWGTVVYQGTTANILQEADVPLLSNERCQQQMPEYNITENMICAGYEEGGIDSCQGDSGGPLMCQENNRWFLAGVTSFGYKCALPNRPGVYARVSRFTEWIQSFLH", "experiment": "Enteropeptidase", "text": "as §1\nHead of the field: Enteropeptidase\nas §2, §3\nWhere the first naming reader finds the target: head: Enteropeptidase"}, "[5]": {"experiment": "Effect on absorption of 14C-proteins after oral administration", "assay_type": "in vivo", "settings": "for Cmax of 14C-protein radioactivity in plasma: control 0.9%±0.27; for AUC mean of 14C-protein radioactivity in plasma: control 2.214±0.1875; for plateau concentration of 14C-protein radioactivity in plasma: 1 h to 4 h post-administration, control 0.5%", "protocol": "3. Effect of OBE2001 on Protein Absorption\nThis third in vivo experiment was designed to obtain information on the absorption of ^14C-proteins in absence or in presence of OBE2001 at two different doses (5 mg/Kg or 50 mg/Kg) after an oral administration to male Swiss mice.\n15 male Swiss (CD-1) mice, 5 weeks-old and having a mean body weight of 0.021±0.002 kg were divided in 3 groups: • Control Group (G1; solvant) containing 5 mice, received water at 5 mL/Kg at t-5 min and ^14C-proteins at 10 mL/Kg at T=0 min; • Group 2 (G2) containing 5 mice (OBE 5 mg/Kg), received OBE2001 at 5 mg/Kg at t-5 min and ^14C-proteins at 10 mL/Kg at T=0 min; • Group 3 (G3) containing […] (OBE 50 mg/Kg), received OBE2001 at 50 mg/Kg at t-5 min and ^14C-proteins at 10 mL/Kg at T=0 min.\nA preparation containing 5 ml of Clinoleic 20 (Baxter Ref DDB9500) with 1 g of glucose (Sigma; ref:G8270) and 1 g of casein (Sigma; ref: C3400) was prepared. Water was added until the solution reached 10 ml. After concentration of the radioactive solution containing the ^14C proteins (GE Healthcare; ref: CFA626) (×10), 200 μl of this radioactive solution was added to 2.8 ml of the preparation, in order to reach a concentration of ca 3.3 μCi/ml. The animals were starved before administration of this radioactive preparation. The radioactive preparation was orally administered by intragastric gavage with a single dosing (ca 33.3 μCi/kg) in a volume of ca 10 ml/kg of body weight.\nOBE2001 was provided in a mixture of two salts (HCl and TFA) with a 90% purity. OBE2001 was orally administered by intragastric gavage with a single dosing of 5 mg/Kg for G2 and 50 mg/Kg for G3 in a volume of ca 5 mL/kg body-weight.\nPlasma aliquots were removed and placed into 6 ml pre-weighed plastic vials, at t+15, t+30, t+60, t+120 and t+240 min. About 4 ml Pico-fluor 40 was added and after shaking, the total radioactivity contained within the different samples was determined by liquid scintillation using a Packard 1900 CA spectrometer equipped with an external standard system (spectral analysis). A quenching curve for calibration purposes was set up using a ^14C quenched set supplied by Packard Instruments.\nLiquid scintillation (LS) Counting was carried out with 2 sigma=2%, and for a maximum duration of 5 minutes (according to the method created in the 1900CA® software). Dpm (disintegration per minute) values of less than twice the background level of blank biological medium were reported as BLQ (Below the Limit of Quantitation)."}},
  "data": [
    {"smiles": "CC(=O)N[C@@H](C)C(=O)N[C@@H](Cc1ccccc1)C(=O)N[C@@H](CCCNC(=N)N)B1OC2C[C@@H]3C[C@@H](C3(C)C)[C@]2(C)O1", "note": "(some centres unmarked) [OBE2001]", "values": [
      {"measurement": "IC50", "setting": "[1]", "result": 21.7, "unit": "nM"},
      {"measurement": "triglycerides, area under the curve", "setting": "[2]; Group 2, 25+25 mg/kg", "result": 48559},
      {"measurement": "triglycerides, area under the curve", "setting": "[2]; Group 3, 25 mg/kg", "result": 56273},
      {"measurement": "triglyceride absorption compared to the control group", "setting": "[2]; 25 mg/kg, groups 2 and 3", "result": "decrease in triglyceride absorption"},
      {"measurement": "plasma triglycerides, % of basal value", "setting": "[2]; 60 min, Group 2, 25 mg/kg at t-5 min + 25 mg/kg at t0, oral gavage", "result": "243.39 % of basal value"},
      {"measurement": "plasma triglycerides, % of basal value", "setting": "[2]; 60 min, Group 3, single 25 mg/kg in solution A at t0, oral gavage", "result": "293.17 % of basal value"},
      {"measurement": "plasma triglycerides, % of basal value", "setting": "[2]; 120 min, Group 2, 25 mg/kg at t-5 min + 25 mg/kg at t0, oral gavage", "result": "202.34 % of basal value"},
      {"measurement": "plasma triglycerides, % of basal value", "setting": "[2]; 120 min, Group 3, single 25 mg/kg in solution A at t0, oral gavage", "result": "269.24 % of basal value"},
      {"measurement": "plasma triglycerides, % of basal value", "setting": "[2]; 180 min, Group 2, 25 mg/kg at t-5 min + 25 mg/kg at t0, oral gavage", "result": "127.81 % of basal value"},
      {"measurement": "plasma triglycerides, % of basal value", "setting": "[2]; 180 min, Group 3, single 25 mg/kg in solution A at t0, oral gavage", "result": "126.45 % of basal value"},
      {"measurement": "plasma triglycerides, % of basal value", "setting": "[2]; 300 min, Group 2, 25 mg/kg at t-5 min + 25 mg/kg at t0, oral gavage", "result": "62.35 % of basal value"},
      {"measurement": "plasma triglycerides, % of basal value", "setting": "[2]; 300 min, Group 3, single 25 mg/kg in solution A at t0, oral gavage", "result": "70.22 % of basal value"},
      {"measurement": "plasma triglycerides, % of basal value", "setting": "[2]; 360 min, Group 2, 25 mg/kg at t-5 min + 25 mg/kg at t0, oral gavage", "result": "56.71 % of basal value"},
      {"measurement": "plasma triglycerides, % of basal value", "setting": "[2]; 360 min, Group 3, single 25 mg/kg in solution A at t0, oral gavage", "result": "60.92 % of basal value"},
      {"measurement": "% of decrease of triglyceride area under the curve versus group 1", "setting": "[2]; Group 2/group 1, 25+25 mg/kg, 25 mg/kg", "result": 26, "unit": "%"},
      {"measurement": "% of decrease of triglyceride area under the curve versus group 1", "setting": "[2]; Group 3/group 1, 25 mg/kg", "result": 14, "unit": "%"},
      {"measurement": "IC50", "setting": "[3]", "result": 6.9, "unit": "nM"},
      {"measurement": "IC50", "setting": "[4]", "result": 7.3, "unit": "nM"},
      {"measurement": "Cmax of 14C-protein radioactivity in plasma", "setting": "[5]; 5 mg/kg oral at t-5 min", "result": "0.58%±0.54 % of administered dose/g"},
      {"measurement": "AUC mean of 14C-protein radioactivity in plasma", "setting": "[5]; 5 mg/kg", "result": "1.841±0.6402", "unit": "% dose.h.g-1"},
      {"measurement": "Cmax of 14C-protein radioactivity in plasma", "setting": "[5]; 50 mg/kg oral at t-5 min", "result": "0.54%±0.24 % of administered dose/g"},
      {"measurement": "AUC mean of 14C-protein radioactivity in plasma", "setting": "[5]; 50 mg/kg", "result": "1.718±0.4366", "unit": "% dose.h.g-1"},
      {"measurement": "plateau concentration of 14C-protein radioactivity in plasma", "setting": "[5]; 5 mg/kg", "result": 0.4, "unit": "% administered dose/g"},
      {"measurement": "plateau concentration of 14C-protein radioactivity in plasma", "setting": "[5]; 50 mg/kg", "result": 0.4, "unit": "% administered dose/g"},
      {"measurement": "protein absorption compared to control mice", "setting": "[5]; first 30 minutes after protein administration, maintained at least 4 hours", "result": "greatly decreased"},
      {"measurement": "morbidity or mortality", "setting": "[5]; single oral dose 5 or 50 mg/kg, male Swiss mice", "result": "no sign of morbidity or mortality occurred"}
    ]}
  ]
}
